Assay results reported in US20070232614A1, “Therapeutic Agent for Nonviral Hepatitis” (Mitsubishi Pharma Corporation, priority 2004, published 2007).

Assays:
[1] = test system: concanavalin A-induced hepatitis; test: Action on concanavalin A-induced hepatitis (plasma ALT 8 hr after Con A); format: in vivo, female BALB/c mouse; details: therapeutic administration 3 hr after Con A injection (20 mg/kg i.v.), mouse
Procedure: 20 mg/kg of concanavalin A (Con A, type V, manufactured by Sigma) was intravenously administered to female BALB/c mouse (purchased from Charles River Laboratories JAPA, INC.). […] The administration time in the prophylactic administration test of pentoxifylline (manufactured by Sigma) or anti-mouse TNF-α antibody (manufactured by Genzyme-Techne) was set according to the method of Shirin et al. [Journal of Hepatology, 29, 60-67 (1998)] or Gantner et al. [Hepatology, 21, 190-198 (1995)]. The administration time in the therapeutic administration test was always set to 3 hr after Con A injection. To be specific, pentoxifylline (100 mg/kg) was intraperitoneally administered 2 hr before or 3 hr after Con A injection, anti-mouse TNF-α antibody (250 μg, was intravenously administrated 15 minutes before or 3 hr after Con A injection, and plasma SALT was similarly measured 8 hr later.
In addition, the test compound (10 mg/kg) was intravenously administrated 15 minutes before or 3 hr after Con A injection, and plasma ALT concentration was similarly measured.
The results are shown in mean±standard error.

[2] = test system: concanavalin A-induced hepatitis; details: prophylactic administration before injection of concanavalin A; mouse; non-patent references 3 and 4; cited from earlier work
[3] = test system: severe alcoholic hepatitis; details: non-patent references 1 and 2; cited from earlier work

CC(=O)NC1(c2ccc(CN3CCN(c4ncccn4)CC3)cc2)CC1.Cl [test compound, N-(1-(4-((4-(pyrimidin-2-yl)piperazin-1-yl)methyl)phenyl)cyclopropyl)acetamide hydrochloride]
therapeutic effect in the hepatitis model (progress of concanavalin A-induced hepatitis, plasma ALT) [1]: shows a therapeutic effect

CC(=O)CCCCn1c(=O)c2c(ncn2C)n(C)c1=O [pentoxifylline]
inhibition of the progress of concanavalin A-induced hepatitis [2]: inhibit the progress | therapeutic effect in the hepatitis model (progress of concanavalin A-induced hepatitis, plasma ALT) [1]: do not inhibit progress | effectiveness for severe alcoholic hepatitis [3]: effective
